The target of experiment [1] is T1, HIV-1 PR (Human immunodeficiency virus type 1 group M subtype B, UniProt P12497). The experiment is described as follows: cell-based. The settings on record: for EC50: PR-on RE294 cells, growth (OD650) at 72 h post-gene induction relative to PR-off cells; for decrease of EC50 of formulated drug in comparison with pure compound: fission yeast RE294, formulated drug pill vs pure compound. As to the method: The goal of this experiment was to determine the potency of each PI drug in fission yeast by the determination of EC50. […] Briefly, both HIV-1 PR-suppressing (PR-off) and PR-producing (PR-on) RE294 cells were prepared as described above. The PR-producing cells were added with a PI drug in the final concentration as indicated. Final cellular growth was measured at 72 h post-gene induction.
(A) Pure compound of PI drugs. (B) Formulated PI drug pills. HIV-1 PR gene expression was induced in RE294 cells, as described in Figure 2. […] Cellular growth was measured at 72 h post-gene induction by optical density of 650 nm using a spectrophotometer. EC50 curves were generated by using Prism 8 software showing averages with standard error bars. The measurements were repeated with three different experiments.
Briefly, both HIV-1 PR-suppressing (PR-off) or PR-producing (PR-on) RE294 cells were prepared as described above as control and for testing. The PR-producing cells were added with a PI drug in the final concentration as shown. Final cellular growth was measured at 72 h post-gene induction by optical density of 650 nm using a spectrophotometer.

In the next experiment the test system is HIV. The settings on record: human cells, antiviral activity; per-drug references in Table 2; read-out: EC50 in Human Cell; cited from earlier work.
In experiment [2] the target is T1, HIV-1 PR. The settings on record: 150 μM drug; G31 cells; 20 h post-gene induction.
Experiment [3] has as its target T1, HIV-1 PR. The experiment is described as follows: Fission yeast colony formation assay, wild-type HIV-1 PR (RE294 strain). The format is cell-based. Also noted: HIV-1 PR is a dimeric aspartyl protease that consists of two identical subunits with 99 amino acids; expressed in transfected cells; host or cells: Schizosaccharomyces pombe strain RE294. The settings on record: 150 μM drug; PR-on RE294 cells; 4–5 days at 30 °C; pure chemical forms and formulated drug pills. On the procedure: The effect of the above-mentioned FDA-approved PI drugs on fission yeast colony formation was tested in the presence and absence of HIV-1 PR. Specifically, a fission yeast RE294 strain, which carries a single and integrated copy of HIV-1 PR gene in the yeast chromosome, was used in this experiment. One thousand active growing and log-phase RE294 cells were evenly spread and cultured on the six-well agar wells containing the minimal and selective PMG medium in presence of 20 µM of thiamine (PR-off) or absence of thiamine (PR-on) with incubation at 30 °C for 4–5 days. […] To test the effect of a PI drug on the colony formation, 150 μM of each drug was added to the respective agar well in the presence of HIV-1 PR. Since all those drugs were dissolved in dimethyl sulfoxide (DMSO), to test the potential DMSO effect on the yeast colony formation, DMSO in the final concentration of 1% was added to the PR-on well as a mock control (Figure 2A). […]
A modified fission yeast colony-formation assay was used to investigate the effect of the PR gene expression on fission yeast cell proliferation from previously described protocol. […] The inhibitory effect of each FDA PI drug on yeast colony formation was evaluated 4–5 days after plating by comparing the growth of the colonies of the drug-treated wells to that of the mock DMSO controls.

Experiment [4] deals with T1, HIV-1 PR. The experiment is classed as cell-based. Set-up: HIV-1 PR is a dimeric aspartyl protease that consists of two identical subunits with 99 amino acids; expressed in transfected cells; host or cells: Schizosaccharomyces pombe strain RE294. The settings on record: 150 μM drug; PR-on RE294 cells; OD650 over 72 h; formulated single-agent and combination drugs.
[5] abbreviates: EC50 in Fission Yeast /Pure Compound, pure compound.
Setting [6] is: EC50 in Fission Yeast /Drug Formulation, compounds in drug pill forms.

Entries after “also recorded” stand apart in the source; their conditions may differ. Where only a bound is given, the exact number is not on record here.

The values that follow come from article PMC8308830, “Single-Agent and Fixed-Dose Combination HIV-1 Protease Inhibitor Drugs in Fission Yeast (Schizosaccharomyces pombe)” (Pathogens, 2021).

Turning to `CC(C)CN(C[C@@H](O)[C@H](Cc1ccccc1)NC(=O)O[C@H]1CCOC1)S(=O)(=O)c1ccc(N)cc1` [APV, Amprenavir], the figures for the concentration giving a half-maximal response (EC50) at HIV-1 PR [1] (setting [5]) and in the experiment with HIV were 55400 ± 3180 nM and 15 to 60 nM, respectively.
As for `CC(C)c1nc(CN(C)C(=O)N[C@H](C(=O)N[C@@H](Cc2ccccc2)C[C@H](O)[C@H](Cc2ccccc2)NC(=O)OCc2cncs2)C(C)C)cs1` [RTV, Ritonavir], at HIV-1 PR [1], the “decrease of EC50 of formulated drug in comparison with pure compound” value (from here on “decrease of EC50 of formulated drug”) is recorded as 38.9%. In addition, the 50% effective concentration (EC50) (usually the concentration that produces a half-maximal response) in the experiment with HIV was 40 to 100 nM.
For the molecule `Cc1c(O)cccc1C(=O)N[C@@H](CSc1ccccc1)[C@H](O)CN1C[C@H]2CCCC[C@H]2C[C@H]1C(=O)NC(C)(C)C` [NFV, Nelfinavir], the EC50 at HIV-1 PR [1] (setting [5]) was 9700 ± 340 nM; with HIV, 3 to 40 nM.
Regarding `Cc1cccc(C)c1OCC(=O)N[C@@H](Cc1ccccc1)[C@@H](O)C[C@H](Cc1ccccc1)NC(=O)[C@H](C(C)C)N1CCCNC1=O` [LPV, Lopinavir], the half-maximal effective concentration (EC50) in the experiment on HIV was 4 to 11 nM.
Consider `CC(C)CN(C[C@@H](OP(=O)(O)O)[C@H](Cc1ccccc1)NC(=O)O[C@H]1CCOC1)S(=O)(=O)c1ccc(N)cc1` [FPV, Fosamprenavir], for which, on HIV-1 PR [1] (setting [6]), the concentration giving a half-maximal response (EC50) was more than 150000 nM. Also, on HIV-1 PR [1] (wild-type PR, fission yeast), the “inhibitory activity against the HIV-1 PR in fission yeast” value is “no inhibitory activity; also recorded: did not show any inhibitory effect”. For the same molecule, the “inhibition of HIV-1 PR proteolytic cleavage of GFP-MA↓CA-Vpr (Vpr pattern vs GFP pattern)” value against HIV-1 PR [2] is “no suppression”. Also, on HIV-1 PR [3], the “suppression of the inhibitory effect of HIV-1 PR on colony formation” value was “did not suppress”. Also, the “suppression of HIV-1 PR-induced growth arrest, formulated drug pills” value at HIV-1 PR [4] was “did not suppress”.
For the molecule `COC(=O)N[C@H](C(=O)N[C@@H](Cc1ccccc1)[C@@H](O)CN(Cc1ccc(-c2ccccn2)cc1)NC(=O)[C@@H](NC(=O)OC)C(C)(C)C)C(C)(C)C` [ATV, Atazanavir], the figures for the EC50 at HIV-1 PR [1] (setting [6]), at HIV-1 PR [1] (setting [5]) and in the experiment on HIV were 16300 ± 950 nM, 21080 ± 70 nM and 2 to 5 nM, respectively. For the same molecule, at HIV-1 PR [1], the “decrease of EC50 of formulated drug” value is 22.5%.
As to `CC(C)CN(C[C@@H](O)[C@H](Cc1ccccc1)NC(=O)O[C@H]1CO[C@H]2OCC[C@H]21)S(=O)(=O)c1ccc(N)cc1` [DRV, Darunavir], the “decrease of EC50 of formulated drug” value at HIV-1 PR [1] came out at 28.5%. For the same molecule, the EC50 in the experiment on HIV was 1 to 10 nM.
As for `CC(C)(C)NC(=O)[C@@H]1C[C@@H]2CCCC[C@@H]2CN1C[C@@H](O)[C@H](Cc1ccccc1)NC(=O)[C@H](CC(N)=O)NC(=O)c1ccc2ccccc2n1` [SQV, Saquinavir], the EC50 in the experiment with HIV is 5 to 25 nM.
Regarding `CC(C)(C)NC(=O)[C@@H]1CN(Cc2cccnc2)CCN1C[C@@H](O)C[C@@H](Cc1ccccc1)C(=O)N[C@H]1c2ccccc2C[C@H]1O` [IDV, Indinavir], the 50% effective concentration (EC50) in the experiment with HIV is 5 to 30 nM.
For the molecule `CCC[C@@]1(CCc2ccccc2)CC(O)=C([C@H](CC)c2cccc(NS(=O)(=O)c3ccc(C(F)(F)F)cn3)c2)C(=O)O1` [TPV, Tipranavir], the results for the EC50 on HIV-1 PR [1] (setting [5]) and in the experiment with HIV were 7060 ± 320 nM and 30 to 70 nM, respectively.
